{"source": "patent US12391701B2", "about": "“Chromene-based compounds, methods and uses thereof” (University of Minho, priority 2019, dated 2025)", "key": {"[1]": {"system": "MCF-7 cells", "test": "Wound-healing assay, MCF-7 cell migration", "type": "cell-based, human", "conditions": "for cell migration less than the control: after 72 hours of treatment, IC50 (and ½IC50) concentration", "experimental": "In an embodiment, the effect of the four selected compounds (MC408, MC409, MC406 and MC421) was further evaluated on cell migration (FIG. 1). MCF-7 cells were treated with the respective IC50 and half of the IC50 values for 72 hours and the wound-healing assay was performed. Half of the IC50 concentration was used for each compound to evaluate concentration-dependent effects. […] Results are presented as mean±SD of at least three independent experiments, *p<0.05; **p<0.01; ***p<0.001; ****p<0.0001 compared to control (DMSO, 0.5%).\nIn an embodiment, cell migration was assessed by the wound-healing assay that mimics the process of cell migration during wound-healing in vivo. This method is based on making a scratch, simulating a wound in a cell monolayer, capturing the images at the beginning and regular intervals during cell migration process to close the wound and comparing the images to quantify the cell migration rate. MCF-7 and Caki-2 cells were plated in 6-well plates at a density of 9.0×10^5 and 3.0×10^5 per 2 mL, respectively, and grown overnight at 37° C. in a 5% CO2 humidified atmosphere. A 200 μL pipette tip was used to make two scratches in a layer of confluent cells. Cells were gently washed once with 500 μL of PBS. MCF-7 cells were treated with compounds at the respective IC50, ½IC50, or 0.5% DMSO (control), for 72 hours. At 0, 12, 24, 48 and 72 hours, specific wound sites (four positions for each wound) were photographed. […] Images were captured at 100× magnification using an Olympus IX51 inverted microscope equipped with an Olympus DP20 Digital Camera System. Assessment of five migration distances was performed using BeWound 1.7.1 and the percentage of cell migration normalized to the control was plotted using GraphPad Prism 6 software. Three independent experiments were performed for each compound. The significance of the difference between different groups was determined with Student t-test."}, "[2]": {"system": "Caenorhabditis elegans", "test": "C. elegans food clearance toxicity assay", "type": "in vivo", "conditions": "several concentrations up to 150 μM (MC369 75 μM)", "experimental": "In an embodiment, toxicity assessment of the compounds in vivo was performed using Caenorhabditis elegans (C. elegans) as a model. A food clearance-based assay was performed, in which the bacteria consumption over time is a proxy for worm development, health and fertility (FIG. 11). […] Worms were cultivated for 7 days in liquid media using heat-inactivated bacteria (E. coli OP50) as a food source and in the presence of several concentrations of compounds MC421, MC406, MC369 and MC408, MC409, MC407. The rate of food consumption between days 3-5 was used as an indication for worm development, health and also fertility, as after day 3 the worms' progeny will contribute to the faster decline in food abundance. An example is shown for hypothetical compound X. DMSO 1% and 5% are used as negative and positive controls for toxicity, respectively. For this experiment, the compounds were solubilized in DMSO 1% (vehicle). In an embodiment, Bristol strain N2 (provided by the CGC, funded by the NIH Office of Research Infrastructure Programs—P40 OD010440) was used to test each compound's toxicity based on a food clearance assay using C. elegans. The assay was performed on 96-well plates in liquid culture (Voisine et al. 2007; Teixeira-Castro et al. 2015). Each well, with a final volume of 60 μL, comprised the following: approximately 20 worms in egg stage, OP50 bacteria to a final OD of 0.6-0.8 (595 nm) and each compound at the appropriate concentration. The worms were grown with continuous shaking at 180 rpm/20° C. (Shel lab Si series incubator) for 7 days and the absorbance (OD595) was measured daily on a microplate reader (Tecan Infinite M200). The effect of the compounds on C. elegans physiology was monitored by the rate at which the E. coli food suspension was consumed (FIG. 14). Age-synchronized worm eggs were obtained by “egg prep” as follows: adult worms were treated with an alkaline hypochlorite solution (20% bleach, 25% 1M NaOH) for 6 minutes, thereafter centrifuged and washed in M9 buffer twice. The egg pellet was then re-suspended in S-medium to obtain the appropriate egg concentration before being transferred to 96-well plates. The OP50 bacteria was prepared by inactivating an overnight culture (37° C., 180 rpm, Luria Broth media) with 4 freeze-thaw cycles. Before use, the OP50 was re-suspended in supplemented S-medium (cholesterol, streptomycin, penicillin and nystatin). The compounds were prepared in 100% DMSO (Sigma) and diluted up to a test concentration of 1% DMSO to prevent solvent toxicity. For each compound, several concentrations (150-10 μM) were tested, with the exception of MC369 (75-10 μM) due to solubility issues. For each compound, several concentrations were used and the corresponding OD595 consumption rate (slope) for days 3-5 was calculated. The compounds were tested in worms grown in 96 well plates (PlateLayout.xls, Supporting Information), in two independent experiments. For the statistical analysis, the data from both experiments were pooled together and IBM SPSS was used to apply an ANOVA (Brown-Forsythe robust test of equality of means) followed by the Games-Howell post hoc test to compare the different concentrations used for each compound and 5% DMSO (wt/v) to the control (1% DMSO(wt/v))."}, "[3]": {"system": "A498 parental cells", "test": "BrdU proliferation assay, A498 parental", "type": "cell-based", "conditions": "24 and 48 hours, IC50 and ½IC50"}}, "data": [{"smiles": "COc1cccc2c1Oc1nc(-c3ccc(Br)cc3)[nH]c1C2C1c2cccc(OC)c2Oc2nc(-c3ccc(Br)cc3)[nH]c21", "note": "(centres unmarked) [MC421, 2,2′-bis(4-bromophenyl)-5,5′-dimethoxy-1,1,9,9′-tetrahydro-9,9′-bichromeno[2,3-]imidazoles]", "values": [{"measurement": "cell migration less than the control", "setting": "[1]", "value": 13, "unit": "%"}, {"measurement": "rate of food consumption between days 3-5 vs 1% DMSO", "setting": "[2]", "value": "No statistical differences"}, {"measurement": "effect on cell proliferation (BrdU)", "setting": "[3]", "value": "significant decrease in cell proliferation"}]}, {"smiles": "COc1cccc2c1Oc1nc(-c3ccc(Br)cc3)[nH]c1C2", "note": "[MC408, 2-(4-bromophenyl)-5-methoxy-3,9-dihydrochromeno[2,3-d]imidazoles]", "values": [{"measurement": "cell migration less than the control", "setting": "[1]", "value": 20, "unit": "%"}, {"measurement": "rate of food consumption between days 3-5 vs 1% DMSO", "setting": "[2]", "value": "No statistical differences"}, {"measurement": "effect on cell proliferation (BrdU)", "setting": "[3]", "value": "significant decrease in cell proliferation"}]}, {"smiles": "COc1cccc2c1Oc1nc(-c3ccccc3F)[nH]c1C2", "note": "[MC407, 2-(2-fluorophenyl)-5-methoxy-3,9-dihydrochromeno[2,3-d]imidazoles]", "values": [{"measurement": "rate of food consumption between days 3-5 vs 1% DMSO", "setting": "[2]", "value": "No statistical differences"}]}, {"smiles": "COc1cccc2c1Oc1nc(-c3ccccc3F)[nH]c1C2C1c2cccc(OC)c2Oc2nc(-c3ccccc3F)[nH]c21", "note": "(centres unmarked) [MC369, 2,2′-bis(2-fluorophenyl)-5,5′-dimethoxy-1,1,9,9′-tetrahydro-9,9′-bichromeno[2,3-]imidazoles]", "values": [{"measurement": "rate of food consumption between days 3-5 vs 1% DMSO", "setting": "[2]", "value": "No statistical differences"}]}, {"smiles": "COc1cccc2c1Oc1nc(-c3ccc(F)cc3)[nH]c1C2", "note": "[MC409, 2-(4-fluorophenyl)-5-methoxy-3,9-dihydrochromeno[2,3-d]imidazoles]", "values": [{"measurement": "decrease of percentage of cell migration relative to control", "setting": "[1]; after 12 hours, IC50 and ½IC50, control 0.5% DMSO", "value": "about 40%"}, {"measurement": "cell migration less than the control", "setting": "[1]", "value": "about 12%"}, {"measurement": "rate of food consumption between days 3-5 vs 1% DMSO", "setting": "[2]", "value": "No statistical differences"}]}, {"smiles": "COc1cccc2c1Oc1nc(-c3ccc(O)cc3)[nH]c1C2", "note": "[MC413, 4-(5-methoxy-3,9-dihydrochromeno[2,3-d]imidazol-2-yl)phenol]", "values": [{"measurement": "effect on cell proliferation (BrdU)", "setting": "[3]", "value": "significant decrease in cell proliferation"}]}, {"smiles": "COc1cccc2c1Oc1nc(-c3ccc(F)cc3)[nH]c1C2C1c2cccc(OC)c2Oc2nc(-c3ccc(F)cc3)[nH]c21", "note": "(centres unmarked) [MC406, 2,2′-bis(4-fluorophenyl)-5,5′-dimethoxy-1,1,9,9′-tetrahydro-9,9′-bichromeno[2,3-]imidazoles]", "values": [{"measurement": "cell migration less than the control", "setting": "[1]", "value": 20, "unit": "%"}, {"measurement": "rate of food consumption between days 3-5 vs 1% DMSO", "setting": "[2]", "value": "No statistical differences"}]}]}
